Measured values as given in patent publication EP1289507B1, “USE OF AN ALDOSTERONE ANTAGONIST FOR THE TREATMENT OR PROPHYLAXIS OF ALDOSTERONE-MEDIATED PATHOGENIC EFFECTS” (priority 2000, dated 2001).
Values joined by “and” are separate entries in the source; they are usually repeats but may differ in a detail not shown here. Equal values may be shown once. Read-outs that look alike come from different tables or passages of the source.

Legend:
[1] = tested on: Volume Expanded Hypertensive Rats; conditions: averaged for 24 hours after three weeks
[2] = tested on: patients with hypertension; experiment: Clinical efficacy in hypertension: randomized double-blind study, cuff and ambulatory blood pressure; assay type: in vivo
Procedure: A multicenter, randomized, double-blind, parallel group study was conducted in patients with hypertension. […] The study consisted of a two-week pretreatment period for completion of screening procedures and discontinuation of any current antihypertensive medication(s). The screening period was followed by a four-week single-blind placebo lead-in treatment period.
The primary efficacy measure was the change from baseline in cuff diastolic blood pressure measured at trough as compared to placebo. Secondary efficacy measures included changes in cuff assessed trough systolic blood pressure and changes in average 24-hour diastolic and systolic blood pressure assessed by ambulatory blood pressure monitoring. Safety was assessed by conducting routine clinical lab tests, physical exams, ECGs, and monitoring for adverse events.

[3] = tested on: saline-drinking SHRSP; experiment: Protocol 1: renal pathologic changes in saline-drinking SHRSP; assay type: in vivo, male SHRSP/A3N
Procedure: Animals. Studies were conducted in accordance with institutional guidelines using male SHRSP/A3N (generations F-75 to F-78), n = 37, from our local colony. These animals were bred from NIH stock, derived from the SHRSP/A3N substrain described originally by Okamoto and coworkers (Okamoto K et al. Circ. Res. 34 and 35 (suppl I):I-143-I-153.). All animals were housed in a room maintained on a 12:12-h light:dark-cycle and an ambient temperature of 22 ± 1°C in the Animal Care Facility at New York Medical College. Rats were weaned at 4 weeks of age and allowed free access to Purina Lab Chow 5001 (Ralston Purina, St. Louis, MO) and tap water until the initiation of experimental protocols.
Eighteen SHRSP were given 1% NaCl to drink and were fed Stroke-Prone Rodent Diet (#39-288, Zeigler Brothers, Inc., Gardners, PA) starting at 8.1 weeks of age. […] Vehicle-control littermates received 2 ml/kg/d of the 0.5% methylcellulose solution. Animals were housed individually in metabolic cages so that measurements of 24-h urine output and protein excretion could be made. Animals were examined each day for neurologic signs of stroke. Systolic arterial pressure and heart rate were measured each week in awake rats. The experiment was terminated after 5 weeks of treatment when the animals were 13.1 weeks of age. Trunk blood was collected into chilled EDTA tubes following rapid decapitation of the animals between 10:00 am and 12:00 pm. Blood was stored at - 20°C for later measurement of plasma aldosterone levels. The kidneys were rapidly removed, weighed, and then preserved in fixative for later histologic examination.
Assays and Analyses. Systolic blood pressure and heart rate of awake animals were measured by tail-cuff plethysmography using a Natsume KN-210 manometer and tachometer (Peninsula Laboratories Inc., Belmont, CA). Rats were warmed at 37°C for 10 min and allowed to rest quietly in a Lucite chamber before measurement of blood pressure. Measurements of urine volume were made gravimetrically. Urinary protein concentration was determined by the sulfosalicylic acid turbidity method. Plasma aldosterone was measured by radioimmunoassay using ^125I-aldosterone as a tracer (Coat-a Count Aldosterone, Diagnostic Products Co., Los Angeles, CA).
Histology. Kidneys were preserved in 10% phosphate-buffered formalin. Coronal sections (2-3 µm) were stained with hematoxylin and eosin and examined by light microscopy in a blinded fashion as previously described (Stier CT et al. J Pharmacol Exp Ther (1992) 260:1410-1415). Glomerular damage was categorized as ischemic or thrombotic. Ischemic lesions were defined as retraction of glomerular capillary tufts with or without appreciable mesangiolysis. Glomerular thrombotic lesions were defined as any one of a combination of the following: segmental to global fibrinoid necrosis, focal thrombosis of glomerular capillaries, swelling and proliferation of intracapillary (endothelial and mesangial) and/or extracapillary cells (crescents), and expansion of reticulated mesangial matrix with or without significant hypercellularity. […] Vascular thrombotic lesions were defined as any one or a combination of the following: mural fibrinoid necrosis, extravasation and fragmentation of red blood cells, and luminal and/or mural thrombosis. Proliferative arteriopathy was characterized by proliferation of markedly swollen myointimal cells with swollen round to ovoid vesicular nuclei surrounded by mucinous extracellular matrix ("onion skinning") often resulting in nodular thickening. Vascular damage was expressed as the number of arteries and arterioles with lesions per 100 glomeruli. The presence of casts and tubular (ischemic) retraction and simplification was assessed semiquantitatively.
Statistical Analysis. Significant effects with respect to treatment and time were determined by two-way analysis of variance. Data with only one grouping variable were analyzed statistically by Student's unpaired t tests. […]

[4] = Form H content of dried solids by X-ray powder diffraction (XPRD); assay type: physicochemical
[5] = oral eplerenone 100 mg/kg/d, preterminal

## COC(=O)[C@@H]1CC2=CC(=O)CC[C@]2(C)[C@@]23O[C@@H]2C[C@@]2(C)[C@@H](CC[C@@]24CCC(=O)O4)[C@H]13 [Eplerenone, Pregn-4-ene-7,21-dicarboxylic acid, 9,11-epoxy-17-hydroxy-3-oxo-, γ-lactone, methyl ester, (7α, 11α, 17β)-]
[1]; 100 mg/kg s.c.
  HR: 352 ± 4 beats/min
  SAP: 155 ± 7 mmHg
[1]; 200 mg/kg s.c.
  HR: 339 ± 4 beats/min
  SAP: 174 ± 5 mmHg
[2]; 50 mg/day (25 BID)
  ABPM DBP, adjusted mean change from baseline to final visit: -4.1 mm Hg
  ABPM SBP, adjusted mean change from baseline to final visit: -7.5 mm Hg
  Cuff SBP, adjusted mean change from baseline to final visit: -8.1 mm Hg
[2]; 50 mg/day (25 BID), eight weeks
  Cuff DBP, adjusted mean change from baseline to final visit: -4.4 mm Hg
[2]; 50 mg/day (50 QD)
  ABPM DBP, adjusted mean change from baseline to final visit: -5.1 mm Hg
  ABPM SBP, adjusted mean change from baseline to final visit: -6.2 mm Hg
  Cuff DBP, adjusted mean change from baseline to final visit: -4.5 mm Hg
  Cuff SBP, adjusted mean change from baseline to final visit: -4.4 mm Hg
[2]; 100 mg/day (50 BID)
  ABPM DBP, adjusted mean change from baseline to final visit: -6.6 mm Hg
  ABPM SBP, adjusted mean change from baseline to final visit: -11.6 mm Hg
  Cuff DBP, adjusted mean change from baseline to final visit: -7.8 mm Hg
  Cuff SBP, adjusted mean change from baseline to final visit: -11.7 mm Hg
[2]; 100 mg/day (100 QD)
  ABPM DBP, adjusted mean change from baseline to final visit: -5.6 mm Hg
  ABPM SBP, adjusted mean change from baseline to final visit: -9.6 mm Hg
  Cuff DBP, adjusted mean change from baseline to final visit: -4.4 mm Hg
  Cuff SBP, adjusted mean change from baseline to final visit: -7.9 mm Hg
[2]; 400 mg/day (200 BID)
  ABPM DBP, adjusted mean change from baseline to final visit: -9.0 mm Hg
  ABPM SBP, adjusted mean change from baseline to final visit: -16.1 mm Hg
  Cuff DBP, adjusted mean change from baseline to final visit: -8.9 mm Hg
  Cuff SBP, adjusted mean change from baseline to final visit: -14.8 mm Hg
[2]; 400 mg/day (400 QD)
  ABPM DBP, adjusted mean change from baseline to final visit: -7.7 mm Hg
  ABPM SBP, adjusted mean change from baseline to final visit: -13.7 mm Hg
  Cuff DBP, adjusted mean change from baseline to final visit: -8.7 mm Hg
  Cuff SBP, adjusted mean change from baseline to final visit: -15.0 mm Hg
[2]; QD and BID regimens, all doses
  Peak to trough ratios: 1.04 - 1.10
[2]; eight-week double-blind treatment
  gynecomastia: no reports of gynecomastia
[2]; incidence of adverse events similar to placebo
  tolerability: well tolerated
[3]; 100 mg/kg/d by gavage, 5 weeks
  Glomerular damage, Ischemic: 1.0 ± 1.0 lesions/100 glomeruli
  Glomerular damage, Thrombotic: 0.1 ± 0.1 lesions/100 glomeruli
  Glomerular damage, Total: 1.0 ± 1.0 lesions/100 glomeruli
  Renal angiopathy, Proliferative: 0.1 ± 0.1 lesions/100 glomeruli
  Renal angiopathy, Thrombotic: 1.0 ± 1.0 lesions/100 glomeruli
  Renal angiopathy, Total: 1.0 ± 1.0 lesions/100 glomeruli
[3]; 100 mg/kg/d, 5 weeks
  Protein casts, % of tubules: 0.11 ± 0.04%
  tubules displaying ischemic retraction and simplification: 0.5 ± 0.2%
[3]; n = 9, P < .01 vs vehicle
  evidence of stroke: none
[3]; oral eplerenone 100 mg/kg/d for 5 to 6 weeks
  renal lesions: 1 ± 1%
[3]; [5]
  proteinuria (urinary protein excretion): 16 ± 2 mg/day
  severe hypertension (systolic blood pressure): 219 ± 6 mm Hg
[4]; cooling rate (0) 1.5°C/min, cooling endpoint (0) 25°C, impurity level (0) 100.8% purity starting material (footnote as printed), replicate runs
  Weight Percent Form H (XPRD): <3% Weight Percent and 5 Weight Percent
[4]; cooling rate (+) 3°C/min, cooling endpoint (-) 5°C, impurity level (+) 89.3% purity starting material
  Weight Percent Form H (XPRD): 9 Weight Percent
